In US12595253B2, “Benzamides of pyrazolylamino-pyrimidinyl derivatives, and compositions and methods thereof” (LYNK PHARMACEUTICALS CO. LTD., priority 2019, dated 2026):

Key:
[1] = Liver microsomes study, Phase I stability (RLM); format: in vitro ADME, rat; conditions: pH 7.4; rat liver microsomes 0.5 mg/mL, 1 μM test article; read-out: RLM Clint
Outline: (§1)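 Phase I turnover was followed by LC/MS/MS of parent compound remaining at 0, 10, 30 and 90 min in NADPH-fortified rat or human microsomes, with cold acetonitrile quench. Half-life and intrinsic clearance were derived from the log-linear depletion slope and the inverse protein concentration.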

[2] = Liver microsomes study, Phase I stability (HLM); format: in vitro ADME, human; conditions: pH 7.4; human liver microsomes 0.5 mg/mL, 1 μM test article; read-out: HLM Clint
Outline: as §1

FLT3D835Y = molecular target: T1, FLT3D835Y (Homo sapiens, UniProt P36888, D835Y); assay: FLT3D835Y microfluidic kinase assay; format: biochemical
T1 construct: purchased Carna Biosciences
T1 sequence (P36888 27-993 D835Y): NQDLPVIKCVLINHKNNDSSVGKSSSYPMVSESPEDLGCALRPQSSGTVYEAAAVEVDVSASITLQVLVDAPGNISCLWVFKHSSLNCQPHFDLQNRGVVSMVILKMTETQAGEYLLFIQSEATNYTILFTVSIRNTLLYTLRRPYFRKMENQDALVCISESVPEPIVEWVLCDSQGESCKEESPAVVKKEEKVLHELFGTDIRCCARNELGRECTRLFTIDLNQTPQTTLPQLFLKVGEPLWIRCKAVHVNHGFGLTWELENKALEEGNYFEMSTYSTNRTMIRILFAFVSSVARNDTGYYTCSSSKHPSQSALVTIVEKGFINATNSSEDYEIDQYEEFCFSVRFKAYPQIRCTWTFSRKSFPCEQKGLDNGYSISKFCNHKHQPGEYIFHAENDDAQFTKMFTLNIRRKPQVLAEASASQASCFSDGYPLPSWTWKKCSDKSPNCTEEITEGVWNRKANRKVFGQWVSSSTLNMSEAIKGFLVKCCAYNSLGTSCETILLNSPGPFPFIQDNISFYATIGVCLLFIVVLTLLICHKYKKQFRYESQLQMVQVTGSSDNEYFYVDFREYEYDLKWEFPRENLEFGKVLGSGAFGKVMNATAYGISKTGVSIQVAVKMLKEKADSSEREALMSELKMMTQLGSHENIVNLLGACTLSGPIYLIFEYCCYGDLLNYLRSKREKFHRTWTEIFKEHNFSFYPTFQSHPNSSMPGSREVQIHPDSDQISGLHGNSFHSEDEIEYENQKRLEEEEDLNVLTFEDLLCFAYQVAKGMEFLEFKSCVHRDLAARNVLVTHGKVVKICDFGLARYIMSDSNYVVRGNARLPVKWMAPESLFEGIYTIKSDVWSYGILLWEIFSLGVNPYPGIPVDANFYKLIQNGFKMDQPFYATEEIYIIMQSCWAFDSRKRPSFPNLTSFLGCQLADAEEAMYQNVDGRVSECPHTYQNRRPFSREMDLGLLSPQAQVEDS
Description: Compounds were tested against FLT3, FLT3ITD and FLT3D835Y.
Assay Formats: FLT3 activity was determined in the reaction buffer 50 mM HEPES, 10 mM MgCl2 and 2 mM DTT by a microfluidic assay. The phosphorylation of a FAM labeled peptide substrate was monitored in the Caliper EZ Reader II (Perkin Elmer). The assay condition for each batch of enzyme (Carna Biosciences) was optimized to obtain 10% conversion rate of peptide substrate.
The test compounds were dissolved in DMSO to a stock concentration of 10 mM. 3-fold serially diluted compounds with top concentration of 5 μM were pre-incubated with FLT3, FLT3ITD or FLT3D835Y for 10 min at ambient temperature. The final DMSO concentration of assay mixture was 1%. […] The reaction was stopped by adding 50 mM EITA. The reaction time for FLT3, FLT3ITD and FLT3D8335Y was 30 min, 40 min and 40 min, respectively.
And the well without compound but with equivalent DMSO was defined as no inhibition. The percent inhibition was calculated by the following formula. % Inhibition=(Conversionmax−Conversionsample)/(Conversionmax−Conversionmin)*100 • Conversionmax means the conversion rate in the positive well without addition of compound • Conversionmin means the conversion rate in the well without addition of enzyme • Conversionsample means the conversion rate of test compounds
The dose-response (percent inhibition) curve was plotted and IC50 values were determined by GraphPad software.

microsomal CLint at 1 μM [1] [µL/min/mg] | microsomal CLint at 1 μM [2] [µL/min/mg] | IC50 (FLT3D835Y) [nM] | SMILES
101 | 15 |  | C[C@@H](C#N)NC(=O)c1ccc(-c2nc(Nc3cnn(C4CCN(C)CC4)c3)ncc2Cl)cc1 [Example 43, (S)-4-(5-Chloro-2-((1-(1-methylpiperidin-4-yl)-1H-pyrazol-4-yl)amino)pyrimidin-4-yl)-N-(1-cyanoethyl)benzamide]
 |  | 11.9 | C[C@@H](C#N)NC(=O)c1ccc(-c2nc(Nc3cnn(C4CC4)c3)ncc2Cl)cc1 [Example 111, (S)-4-(5-Chloro-2-((1-cyclopropyl-1H-pyrazol-4-yl)amino)pyrimidin-4-yl)-N-(1-cyanoethyl)benzamide]
31.6 | 12.3 | 15.5 | Cn1cc(Nc2ncc(Cl)c(-c3ccc(C(=O)NCC#N)cc3)n2)cn1 [Example 34, 4-(5-Chloro-2-((1-methyl-1H-pyrazol-4-yl)amino)pyrimidin-4-yl)-N-(cyanomethyl)benzamide]
 |  | 4320 | CCNC(=O)c1ccc(-c2nc(Nc3cnn(C)c3)ncc2C)cc1 [Example 222, N-ethyl-4-(5-methyl-2-((1-methyl-1H-pyrazol-4-yl)amino)pyrimidin-4-yl)benzamide]
16.4 | 1.22 |  | Cc1cnc(Nc2cnn(CC#N)c2)nc1-c1ccc(C(=O)NCC#N)cc1 [Example 4, N-(Cyanomethyl)-4-(2-((1-(cyanomethyl)-1H-pyrazol-4-yl)amino)-5-methylpyrimidin-4-yl)benzamide]
26 |  |  | C[C@@H](C#N)NC(=O)c1ccc(-c2nc(Nc3cnn(C4CCNCC4)c3)ncc2Cl)cc1 [Example 165, (S)-4-(5-chloro-2-((1-(piperidin-4-yl)-1H-pyrazol-4-yl)amino)pyrimidin-4-yl)-N-(1-cyanoethyl)benzamide]
28.4 | 21.9 | 43.8 | C[C@@H](C#N)NC(=O)c1ccc(-c2nc(Nc3cnn(C)c3)ncc2Cl)cc1 [Example 125, (S)-4-(5-chloro-2-((1-methyl-1H-pyrazol-4-yl)amino)pyrimidin-4-yl)-N-(1-cyanoethyl)benzamide]
 |  | 11.5 | CC[C@@H](C#N)NC(=O)c1ccc(-c2nc(Nc3cnn(C4CC4)c3)ncc2Cl)cc1 [Example 61, (S)-4-(5-chloro-2-((1-cyclopropyl-1H-pyrazol-4-yl)amino)pyrimidin-4-yl)-N-(1-cyanopropyl)benzamide]
18.9 | 12 |  | CC[C@@H](C#N)NC(=O)c1ccc(-c2nc(Nc3cnn(C4CCNCC4)c3)ncc2Cl)cc1 [Example 183, (S)-4-(5-chloro-2-((1-(piperidin-4-yl)-1H-pyrazol-4-yl)amino)pyrimidin-4-yl)-N-(1-cyanopropyl)benzamide]
 |  | 2830 | Cc1cnc(Nc2cnn(C)c2)nc1-c1ccc(C(=O)NC(C)C)cc1 [Example 223, N-isopropyl-4-(5-methyl-2-((1-methyl-1H-pyrazol-4-yl)amino)pyrimidin-4-yl)benzamide]
73.9 | 203 |  | Cc1cnc(Nc2cnn(C3CC(C)(C)OC(C)(C)C3)c2)nc1-c1ccc(C(=O)NCC#N)cc1 [Example 113, N-(cyanomethyl)-4-(5-methyl-2-((1-(2,2,6,6-tetramethyltetrahydro-2H-pyran-4-yl)-1H-pyrazol-4-yl)amino)pyrimidin-4-yl)benzamide]
78.5 | 11.4 |  | CC[C@@H](C#N)NC(=O)c1ccc(-c2nc(Nc3cnn(C4CCN(C)CC4)c3)ncc2C)cc1 [Example 184, (S)—N-(1-Cyanopropyl)-4-(5-methyl-2-((1-(1-methylpiperidin-4-yl)-1H-pyrazol-4-yl)amino)pyrimidin-4-yl)benzamide]
 |  | 2040 | CNC(=O)c1ccc(-c2nc(Nc3cnn(C)c3)ncc2C)cc1 [Example 10, N-Methyl-4-(5-methyl-2-((1-methyl-1H-pyrazol-4-yl)amino)pyrimidin-4-yl)benzamide]
31.1 | 8.84 |  | N#CCNC(=O)c1ccc(-c2nc(Nc3cnn(C4CC4)c3)ncc2Cl)cc1 [Example 95, 4-(5-Chloro-2-((1-cyclopropyl-1H-pyrazol-4-yl)amino)pyrimidin-4-yl)-N-(cyanomethyl)benzamide]
